Laboratory results from patent US20070249725A1, “Pharmaceutical formulations of sympathetic antagonist for the treatment of chronic muscle pain” (priority 2006, published 2007).
Counter-ions that a name gives are not always drawn.

Assay: Adverse events in subjects treated by trigger point injection (Example 1)
Assay type: in vivo, human
Protocol: A total of 326 male and female subjects, approximately 15 to 85 years old with pain of 4-72 month duration were treated with various doses of phenoxybenzamine. If a potential subject had pain that was clearly muscular and clearly not due to arthritis, nerve root compression or other extramuscular cause, the subject was considered a candidate for phenoxybenzamine hydrochloride injection. Trigger points were identified by palpation. A monopolar EMG needle was then inserted into the trigger point. Another monopolar EMG needle was inserted into a nearby nontender fibers of the same muscle. […] The treatment was repeated in up to 10-12 trigger points per treatment session. Subjects could return for up to 6 treatment sessions, depending on the extent of their pain. The initial treatment was with a dose of 25 mg of phenoxybenzamine hydrochloride in an injection volume of 2 ml. […] For 318 subjects, data were available for analysis for the doses of phenoxybenzamine hydrochloride used, efficacy and incidence of serious adverse events.
The frequencies of other adverse events occurring in the first 199 subjects treated, including the first 87 subjects treated with the 3 mg dose, are given in the table below. Results with an additional 131 subjects treated with the 3 mg dose have been similar.

[1] = 3 mg, multiple injections, N 87
[2] = 10-12.5 mg, multiple injections, N 89
[3] = 10-25 mg, single injection, N 23

CC(COc1ccccc1)N(CCCl)Cc1ccccc1 (stereo not shown) [Phenoxybenzamine Hydrochloride, phenoxybenzamine hydrochloride]
7: Vomiting, number of subjects [2] | Vomiting, number of subjects (Total of all doses, N 199)
20: Injection site swelling, number of subjects [1]
12: Lightheadedness, number of subjects [2] | Headache, number of subjects (Total of all doses, N 199)
(11%): Bruising at injection site, % of subjects [2] | Dizziness, % of subjects (Total of all doses, N 199)
33%: Injection site swelling, % of subjects (Total of all doses, N 199)
4%: Rash, % of subjects [3]
(13%): Lightheadedness, % of subjects [2] | Stiffness, % of subjects [3]
23%: Injection site swelling, % of subjects [1]
8: Injection site soreness, number of subjects [3] | Fatigue, number of subjects (Total of all doses, N 199)
(4%): Fatigue, % of subjects [2] | Hypesthesia, % of subjects [2] | Burning, % of subjects [3] | Cold sensation, % of subjects [3] | Dysphagia, % of subjects [3] | Epistaxis, % of subjects [3] | Fatigue, % of subjects [3] | Lightheadedness, % of subjects [3] | Tachycardia, % of subjects [3] | Taste disorder, % of subjects [3] | Fatigue, % of subjects (Total of all doses, N 199) | Vomiting, % of subjects (Total of all doses, N 199)
(3%): Dizziness, % of subjects [1] | Fatigue, % of subjects [1] | Headache, % of subjects [1] | Burning, % of subjects [2] | Dyspnea, % of subjects [2] | Paresthesia, % of subjects [2] | Hypesthesia, % of subjects (Total of all doses, N 199) | Stiffness, % of subjects (Total of all doses, N 199) | Syncope, % of subjects (Total of all doses, N 199)
16: Nausea, number of subjects [2]
(8%): Vomiting, % of subjects [2]
11: Bruising at injection site, number of subjects (Total of all doses, N 199)
1: Bruising at injection site, number of subjects [1] | Dyspnea, number of subjects [1] | Flu syndrome, number of subjects [1] | Hair disorder, number of subjects [1] | Lethargy, number of subjects [1] | Stiffness, number of subjects [1] | Taste disorder, number of subjects [1] | Tremor, number of subjects [1] | Cold sensation, number of subjects [2] | Diaphoresis, number of subjects [2] | Dry mouth, number of subjects [2] | Fever, number of subjects [2] | Flu syndrome, number of subjects [2] | Palpitations, number of subjects [2] | Pharyngitis, number of subjects [2] | Pruritis, number of subjects [2] | Tremor, number of subjects [2] | Burning, number of subjects [3] | Cold sensation, number of subjects [3] | Dysphagia, number of subjects [3] | Epistaxis, number of subjects [3] | Fatigue, number of subjects [3] | Lightheadedness, number of subjects [3] | Rash, number of subjects [3] | Tachycardia, number of subjects [3] | Taste disorder, number of subjects [3] | Diaphoresis, number of subjects (Total of all doses, N 199) | Dry mouth, number of subjects (Total of all doses, N 199) | Dysphagia, number of subjects (Total of all doses, N 199) | Epistaxis, number of subjects (Total of all doses, N 199) | Fever, number of subjects (Total of all doses, N 199) | Hair disorder, number of subjects (Total of all doses, N 199) | Lethargy, number of subjects (Total of all doses, N 199) | Palpitations, number of subjects (Total of all doses, N 199) | Pharyngitis, number of subjects (Total of all doses, N 199) | Pruritis, number of subjects (Total of all doses, N 199) | Tachycardia, number of subjects (Total of all doses, N 199)
0%: Rash, % of subjects [1]
(7%): Syncope, % of subjects [2] | Lightheadedness, % of subjects (Total of all doses, N 199)
45%: Injection site swelling, % of subjects [2]
59: Injection site soreness, number of subjects (Total of all doses, N 199)
33: Injection site soreness, number of subjects [2]
(6%): Bruising at injection site, % of subjects (Total of all doses, N 199) | Headache, % of subjects (Total of all doses, N 199)
26%: Injection site swelling, % of subjects [3]
(35%): Injection site soreness, % of subjects [3]
13: Lightheadedness, number of subjects (Total of all doses, N 199)
(30%): Injection site soreness, % of subjects (Total of all doses, N 199)
18: Injection site soreness, number of subjects [1] | Dizziness, number of subjects [2] | Nausea, number of subjects (Total of all doses, N 199)
66: Injection site swelling, number of subjects (Total of all doses, N 199)
(5%): Pain, % of subjects [1] | Pain, % of subjects (Total of all doses, N 199)
(2%): Nausea, % of subjects [1] | Diarrhea, % of subjects [2] | Injection site drainage, % of subjects [2] | Nasal disorder, % of subjects [2] | Stiffness, % of subjects [2] | Swelling, % of subjects [2] | Taste disorder, % of subjects [2] | Burning, % of subjects (Total of all doses, N 199) | Dyspnea, % of subjects (Total of all doses, N 199) | Nasal disorder, % of subjects (Total of all doses, N 199) | Paresthesia, % of subjects (Total of all doses, N 199) | Taste disorder, % of subjects (Total of all doses, N 199)
(9%): Hypesthesia, % of subjects [3] | Nasal disorder, % of subjects [3] | Nausea, % of subjects (Total of all doses, N 199)
(26%): Pain, % of subjects [3]
(18%): Nausea, % of subjects [2]
10: Bruising at injection site, number of subjects [2] | Pain, number of subjects (Total of all doses, N 199)
9: Headache, number of subjects [2]
(10%): Headache, % of subjects [2]
6: Syncope, number of subjects [2] | Injection site swelling, number of subjects [3] | Pain, number of subjects [3] | Hypesthesia, number of subjects (Total of all doses, N 199) | Stiffness, number of subjects (Total of all doses, N 199) | Syncope, number of subjects (Total of all doses, N 199)
3: Dizziness, number of subjects [1] | Fatigue, number of subjects [1] | Headache, number of subjects [1] | Burning, number of subjects [2] | Dyspnea, number of subjects [2] | Paresthesia, number of subjects [2] | Stiffness, number of subjects [3] | Paresthesia, number of subjects (Total of all doses, N 199) | Rash, number of subjects (Total of all doses, N 199)
4: Pain, number of subjects [1] | Fatigue, number of subjects [2] | Hypesthesia, number of subjects [2] | Burning, number of subjects (Total of all doses, N 199) | Dyspnea, number of subjects (Total of all doses, N 199) | Nasal disorder, number of subjects (Total of all doses, N 199) | Taste disorder, number of subjects (Total of all doses, N 199)
40: Injection site swelling, number of subjects [2]
(21%): Injection site soreness, % of subjects [1]
(1%): Bruising at injection site, % of subjects [1] | Dyspnea, % of subjects [1] | Flu syndrome, % of subjects [1] | Hair disorder, % of subjects [1] | Lethargy, % of subjects [1] | Stiffness, % of subjects [1] | Taste disorder, % of subjects [1] | Tremor, % of subjects [1] | Cold sensation, % of subjects [2] | Diaphoresis, % of subjects [2] | Dry mouth, % of subjects [2] | Fever, % of subjects [2] | Flu syndrome, % of subjects [2] | Palpitations, % of subjects [2] | Pharyngitis, % of subjects [2] | Pruritis, % of subjects [2] | Tremor, % of subjects [2] | Cold sensation, % of subjects (Total of all doses, N 199) | Diarrhea, % of subjects (Total of all doses, N 199) | Flu syndrome, % of subjects (Total of all doses, N 199) | Injection site drainage, % of subjects (Total of all doses, N 199) | Swelling, % of subjects (Total of all doses, N 199) | Tremor, % of subjects (Total of all doses, N 199)
similar: frequencies of adverse events in additional 131 subjects compared with Table 3 (3 mg dose)
2: Nausea, number of subjects [1] | Diarrhea, number of subjects [2] | Injection site drainage, number of subjects [2] | Nasal disorder, number of subjects [2] | Rash, number of subjects [2] | Stiffness, number of subjects [2] | Swelling, number of subjects [2] | Taste disorder, number of subjects [2] | Hypesthesia, number of subjects [3] | Nasal disorder, number of subjects [3] | Cold sensation, number of subjects (Total of all doses, N 199) | Diarrhea, number of subjects (Total of all doses, N 199) | Flu syndrome, number of subjects (Total of all doses, N 199) | Injection site drainage, number of subjects (Total of all doses, N 199) | Swelling, number of subjects (Total of all doses, N 199) | Tremor, number of subjects (Total of all doses, N 199)
(37%): Injection site soreness, % of subjects [2]
21: Dizziness, number of subjects (Total of all doses, N 199)
(20%): Dizziness, % of subjects [2]
(0%): Burning, % of subjects [1] | Cold sensation, % of subjects [1] | Diaphoresis, % of subjects [1] | Diarrhea, % of subjects [1] | Dry mouth, % of subjects [1] | Dysphagia, % of subjects [1] | Epistaxis, % of subjects [1] | Fever, % of subjects [1] | Hypesthesia, % of subjects [1] | Injection site drainage, % of subjects [1] | Lightheadedness, % of subjects [1] | Nasal disorder, % of subjects [1] | Palpitations, % of subjects [1] | Paresthesia, % of subjects [1] | Pharyngitis, % of subjects [1] | Pruritis, % of subjects [1] | Swelling, % of subjects [1] | Syncope, % of subjects [1] | Tachycardia, % of subjects [1] | Vomiting, % of subjects [1] | Dysphagia, % of subjects [2] | Epistaxis, % of subjects [2] | Hair disorder, % of subjects [2] | Lethargy, % of subjects [2] | Pain, % of subjects [2] | Tachycardia, % of subjects [2] | Bruising at injection site, % of subjects [3] | Diaphoresis, % of subjects [3] | Diarrhea, % of subjects [3] | Dizziness, % of subjects [3] | Dry mouth, % of subjects [3] | Dyspnea, % of subjects [3] | Fever, % of subjects [3] | Flu syndrome, % of subjects [3] | Hair disorder, % of subjects [3] | Headache, % of subjects [3] | Injection site drainage, % of subjects [3] | Lethargy, % of subjects [3] | Nausea, % of subjects [3] | Palpitations, % of subjects [3] | Paresthesia, % of subjects [3] | Pharyngitis, % of subjects [3] | Pruritis, % of subjects [3] | Swelling, % of subjects [3] | Syncope, % of subjects [3] | Tremor, % of subjects [3] | Vomiting, % of subjects [3] | Diaphoresis, % of subjects (Total of all doses, N 199) | Dry mouth, % of subjects (Total of all doses, N 199) | Dysphagia, % of subjects (Total of all doses, N 199) | Epistaxis, % of subjects (Total of all doses, N 199) | Fever, % of subjects (Total of all doses, N 199) | Hair disorder, % of subjects (Total of all doses, N 199) | Lethargy, % of subjects (Total of all doses, N 199) | Palpitations, % of subjects (Total of all doses, N 199) | Pharyngitis, % of subjects (Total of all doses, N 199) | Pruritis, % of subjects (Total of all doses, N 199) | Tachycardia, % of subjects (Total of all doses, N 199)
2%: Rash, % of subjects [2] | Rash, % of subjects (Total of all doses, N 199)
